Measurements reported in patent US8580829B2 (Boehringer Ingelheim International GmbH, priority 2010, dated 2013).

Columns and labels:
[1] = target: T1, recombinant human FLAP protein (Homo sapiens, UniProt P20292); experiment: FLAP binding assay (Scintillation Proximity Assay, displacement of [125I]L-691,831); conditions: recombinant human FLAP membranes, [125I]L-691,831 probe; read-out: FLAP SPA IC50
T1 construct: made in house; host or cells: Sf9 insect cells (100,000 x g membrane fraction)
T1 sequence (P20292 1-161): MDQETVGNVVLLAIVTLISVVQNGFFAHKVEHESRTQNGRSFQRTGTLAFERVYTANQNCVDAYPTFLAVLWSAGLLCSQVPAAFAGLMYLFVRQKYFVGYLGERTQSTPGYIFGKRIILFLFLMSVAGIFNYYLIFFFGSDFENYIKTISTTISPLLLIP
Experimental: Cell pellets produced from sf9 insect cells expressing recombinant human FLAP protein are resuspended in buffer A [15 mM Tris-HCl (pH 7.5), 2 mM MgCl2, 0.3 mM EDTA, 1 mM PMSF]. The cells are lysed with a Dounce homogenizer and the material is centrifuged at 10,000×g for 10 minutes. The supernatant is then collected and centrifuged at 100,000×g for 60 minutes. To prepare membrane protein for an assay, an aliquot of the 100,000×g pellet is resuspended in 1 ml of buffer A, Dounce homogenized, and finally subjected to polytron mixing (30 seconds). Membrane protein (25 μl, 5 μg) is mixed with WGA SPA beads (Amersham) and stirred for 1 h.

[2] = system: synthesis of LTB4 in human whole blood; experiment: human whole blood LTB4 production inhibition assay; format: cell-based; conditions: Homo sapiens, heparinized human whole blood, calcimycin 20 μM; read-out: hWB LTB4 IC50
Experimental: Compounds are additionally tested in a human whole blood assay to determine their ability to inhibit the synthesis of LTB4 in a cellular system. Compounds are combined with heparinized human whole blood and incubated for 15 minutes at 37° C. Calcimycin (20 μM final, prepared in phosphate-buffered saline, pH 7.4) is then added and the mixture is incubated for another 30 minutes at 37° C. The samples are centrifuged for 5 min at low speed (1500×g) and the plasma layer is removed. Plasma LTB4 concentrations are then measured using an antibody-based homogenous time-resolved fluorescence method (CisBio, Bedford, Mass.).

IC50 [1] | IC50 [2] | Structure (SMILES)
0.004 µM | 0.55 µM | COc1cc(-c2nc(C3(c4ccc(-c5cnc(N)nc5)cc4)CCC3)no2)on1 [Example 33, 5-(4-{1-[5-(3-Methoxy-isoxazol-5-yl)-1,2,4-oxadiazol-3-yl]-cyclobutyl}-phenyl)-pyrimidin-2-ylamine]
0.0077 µM | 0.78 µM | Cc1cccc(-c2nc(C3(c4ccc(-c5cnc(N)nc5)cc4)CCC3)no2)c1 [Example 34, 5-{4-[1-(5-m-tolyl-1,2,4-oxadiazol-3-yl)-cyclobutyl]-phenyl}-pyrimidin-2-ylamine]
0.0036 µM | 0.6 µM | Cc1ccc(-c2nc(C3(c4ccc(-c5cnc(N)nc5)cc4)CCC3)no2)cc1 [Example 35, 5-{4-[1-(5p-Tolyl-1,2,4-oxadiazol-3-yl)-cyclobutyl]-phenyl}-pyrimidin-2-ylamine]
0.0043 µM | 0.26 µM | CS(=O)(=O)c1ccc(-c2nc(C3(c4ccc(-c5cnc(N)nc5)cc4)CCC3)no2)cc1 [Example 36, 5-(4-{1-[5-(4-Methanesulfonyl-phenyl)-1,2,4-oxadiazol-3-yl]-cyclobutyl}-phenyl)-pyrimidin-2-ylamine]
0.0037 µM | 0.34 µM | Nc1cc(-c2nc(C3(c4ccc(-c5cnc(N)nc5)cc4)CCC3)no2)ccn1 [Example 37, 5-(4-{1-[5-(2-Amino-pyridin-4-yl)-1,2,4-oxadiazol-3-yl]-cyclobutyl}-phenyl)-pyrimidin-2-ylamine]
0.0024 µM | > 5 µM | Nc1ncc(-c2ccc(C3(c4noc(-c5ccc(S(N)(=O)=O)cc5)n4)CCC3)cc2)cn1 [Example 38, 4-(3-{1-[4-(2-Amino-pyrimidin-5-yl)-phenyl]-cyclobutyl}-1,2,4-oxadiazol-5-yl)-benzenesulfonamide]
0.012 µM | 0.8 µM | CS(=O)(=O)c1cccc(-c2nc(C3(c4ccc(-c5cnc(N)nc5)cc4)CCC3)no2)c1 [Example 39, 5-(4-{1-[5-(3-Methanesulfonyl-phenyl)-1,2,4-oxadiazol-3-yl]-cyclobutyl}-phenyl)-pyrimidin-2-ylamine]
0.0047 µM | 2.1 µM | Nc1ncc(-c2ccc(C3(c4noc(-c5c[nH]nn5)n4)CCC3)cc2)cn1 [Example 40, 5-(4-{1-[5-(1H-1,2,3-Triazol-4-yl)-1,2,4-oxadiazol-3-yl]-cyclobutyl}-phenyl)-pyrimidin-2-ylamine]
0.0081 µM | 0.93 µM | N#Cc1cccc(-c2nc(C3(c4ccc(-c5cnc(N)nc5)cc4)CCC3)no2)c1 [Example 41, 3-(3-{1-[4-(2-Amino-pyrimidin-5-yl)-phenyl]-cyclobutyl}-1,2,4-oxadiazol-5-yl)-benzonitrile]
0.0084 µM | 0.69 µM | N#Cc1ccc(-c2nc(C3(c4ccc(-c5cnc(N)nc5)cc4)CCC3)no2)cc1 [Example 42, 4-(3-{1-[4-(2-Amino-pyrimidin-5-yl)-phenyl]-cyclobutyl}-1,2,4-oxadiazol-5-yl)-benzonitrile]
0.0032 µM | 0.23 µM | Nc1ncc(-c2ccc(C3(c4noc(-c5cccc(O)c5)n4)CCC3)cc2)cn1 [Example 43, 3-(3-{1-[4-(2-Amino-pyrimidin-5-yl)-phenyl]-cyclobutyl}-1,2,4-oxadiazol-5-yl)-phenol]
0.0031 µM | 0.075 µM | Nc1ncc(-c2ccc(C3(c4noc(-c5ccc(O)cc5)n4)CCC3)cc2)cn1 [Example 44, 4-(3-{1-[4-(2-Amino-pyrimidin-5-yl)-phenyl]-cyclobutyl}-1,2,4-oxadiazol-5-yl)-phenol]
0.0079 µM | 0.95 µM | Nc1ncc(-c2ccc(C3(c4noc(-c5cccc(Cl)c5)n4)CCC3)cc2)cn1 [Example 45, 5-(4-{1-[5-(3-Chloro-phenyl)-1,2,4-oxadiazol-3-yl]-cyclobutyl}-phenyl)-pyrimidin-2-ylamine]
0.0075 µM | 1.5 µM | Nc1ncc(-c2ccc(C3(c4noc(-c5ccc(Cl)cc5)n4)CCC3)cc2)cn1 [Example 46, 5-(4-{1-[5-(4-Chloro-phenyl)-1,2,4-oxadiazol-3-yl]-cyclobutyl}-phenyl)-pyrimidin-2-ylamine]
0.015 µM | 2.4 µM | Nc1ncc(-c2ccc(C3(c4noc(-c5cccc(S(N)(=O)=O)c5)n4)CCC3)cc2)cn1 [Example 47, 3-(3-{1-[4-(2-Amino-pyrimidin-5-yl)-phenyl]-cyclobutyl}-1,2,4-oxadiazol-5-yl)-benzenesulfonamide]
0.0025 µM | 0.43 µM | COc1ccc(-c2nc(C3(c4ccc(-c5cnc(N)nc5)cc4)CCC3)no2)cc1 [Example 48, 5-(4-{1-[5-(4-Methoxy-phenyl)-1,2,4-oxadiazol-3-yl]-cyclobutyl}-phenyl)-pyrimidin-2-ylamine]
0.0037 µM | 0.66 µM | COc1cccc(-c2nc(C3(c4ccc(-c5cnc(N)nc5)cc4)CCC3)no2)c1 [Example 49, 5-(4-{1-[5-(3-Methoxy-phenyl)-1,2,4-oxadiazol-3-yl]-cyclobutyl}-phenyl)-pyrimidin-2-ylamine]
0.0044 µM | 0.49 µM | COc1ccc(-c2nc(C3(c4ccc(-c5cnc(N)nc5)cc4)CCC3)no2)cc1OC [Example 50, 5-(4-{1-[5-(3,4-Dimethoxy-phenyl)-1,2,4-oxadiazol-3-yl]-cyclobutyl}-phenyl)-pyrimidin-2-ylamine]
0.007 µM | 1 µM | Nc1ncc(-c2ccc(C3(c4noc(-c5ccc(F)cc5)n4)CCC3)cc2)cn1 [Example 51, 5-(4-{1-[5-(4-Fluoro-phenyl)-1,2,4-oxadiazol-3-yl]-cyclobutyl}-phenyl)-pyrimidin-2-ylamine]
0.0043 µM | 0.78 µM | Nc1ncc(-c2ccc(C3(c4noc(-c5cccc(F)c5)n4)CCC3)cc2)cn1 [Example 52, 5-(4-{1-[5-(3-Fluoro-phenyl)-1,2,4-oxadiazol-3-yl]-cyclobutyl}-phenyl)-pyrimidin-2-ylamine]
0.0062 µM | 0.58 µM | Cc1ccc(-c2nc(C3(c4ccc(-c5cnc(N)nc5)cc4)CCC3)no2)cc1Cl [Example 53, 5-(4-{1-[5-(3-Chloro-4-methyl-phenyl)-1,2,4-oxadiazol-3-yl]-cyclobutyl}-phenyl)-pyrimidin-2-ylamine]
0.015 µM | 1.2 µM | CC(C)(C)c1ccc(-c2nc(C3(c4ccc(-c5cnc(N)nc5)cc4)CCC3)no2)cc1 [Example 54, 5-(4-{1-[5-(4-tert-Butyl-phenyl)-1,2,4-oxadiazol-3-yl]-cyclobutyl}-phenyl)-pyrimidin-2-ylamine]
0.013 µM | 1.1 µM | Nc1ncc(-c2ccc(C3(c4noc(-c5ccc(Cl)c(Cl)c5)n4)CCC3)cc2)cn1 [Example 55, 5-(4-{1-[5-(3,4-Dichloro-phenyl)-1,2,4-oxadiazol-3-yl]-cyclobutyl}-phenyl)-pyrimidin-2-ylamine]
0.0084 µM | 0.99 µM | Nc1ncc(-c2ccc(C3(c4noc(-c5ccnc(Cl)c5)n4)CCC3)cc2)cn1 [Example 56, 5-(4-{1-[5-(2-Chloro-pyridin-4-yl)-1,2,4-oxadiazol-3-yl]-cyclobutyl}-phenyl)-pyrimidin-2-ylamine]
0.0018 µM | 0.045 µM | Cn1nccc1-c1nc(C2(c3ccc(-c4cnc(N)nc4)cc3)CCC2)no1 [Example 57, 5-(4-{1-[5-(2-methyl-2H-pyrazol-3-yl)-1,2,4-oxadiazol-3-yl]-cyclobutyl}-phenyl)-pyrimidin-2-ylamine]
0.002 µM | > 5 µM | Cc1cc(C)c(-c2nc(C3(c4ccc(-c5cnc(N)nc5)cc4)CCC3)no2)c(=O)[nH]1 [Example 58, 3-(3-{1-[4-(2-Amino-pyrimidin-5-yl)-phenyl]-cyclobutyl}-1,2,4-oxadiazol-5-yl)-4,6-dimethyl-1H-pyridin-2-one]
0.0051 µM | 0.13 µM | Nc1ncc(-c2ccc(C3(c4noc(-c5ccc(C(=O)N6CCC(F)(F)CC6)nc5)n4)CCC3)cc2)cn1 [Example 59, [5-(3-{1-[4-(2-amino-pyrimidin-5-yl)-phenyl]-cyclobutyl}-1,2,4-oxadiazol-5-yl)-pyridin-2-yl]-(4,4-difluoro-piperidin-1-yl)-methanone]
0.0047 µM | 0.15 µM | Nc1ncc(-c2ccc(C3(c4noc(-c5ccc(C(=O)N6CCC(O)C6)nc5)n4)CCC3)cc2)cn1 (stereo not shown) [Example 60, [5-(3-{1-[4-(2-Amino-pyrimidin-5-yl)-phenyl]-cyclobutyl]-1,2,4-oxadiazol-5-yl)-pyridin-2-yl]-(3-hydroxy-pyrrolidin-1-yl)-methanone]
0.0015 µM | 0.053 µM | CN(CCO)c1cnc(-c2nc(C3(c4ccc(-c5cnc(N)nc5)cc4)CCC3)no2)cn1 [Example 61, 2-{[5-(3-{1-[4-(2-amino-pyrimidin-5-yl)-phenyl]-cyclobutyl}-1,2,4-oxadiazol-5-yl)-pyrazin-2-yl]-methyl-amino}-ethanol]
